In one assay the test system is Staphylococcus aureus. The assay can be described thus: Antibacterial activity against Staphylococcus aureus 209p by serial dilution method. Type of assay: functional.
The next assay concerns Candida albicans. The assay can be described thus: Antifungal activity against Candida albicans 855-653 by serial dilution method. The assay is classed as functional.
The subject of a further assay is B16-F10. The assay can be described thus: Antiproliferative activity against mouse B16F10 cells. The assay is classed as functional, cell-based.
The test system of assay [1] is HCT-116. The assay can be described thus: Antiproliferative activity against human HCT116 cells after 72 hrs by MTT assay. The assay is classed as functional, cell-based. The following applies: HCT-116, 72 h.
The subject of assay [2] is Mycobacterium tuberculosis. The assay can be described thus: Antimycobacterial activity against Mycobacterium tuberculosis H37Rv after 11 days by serial dilution method. The following applies: 264 h. The assay is classed as functional.
The test system of assay [3] is Mycobacterium tuberculosis. The assay can be described thus: Antimycobacterial activity against Mycobacterium tuberculosis H37Rv after 10 to 12 days by vertical diffusion method. The assay is classed as functional.
The test system of another assay is Mycolicibacter terrae. The assay can be described thus: Antimycobacterial activity against Mycobacterium terrae after 10 to 12 days by vertical diffusion method. The assay is classed as functional.
In the next assay the test system is Mycobacterium avium. The assay can be described thus: Antimycobacterial activity against Mycobacterium avium after 10 to 12 days by vertical diffusion method. The assay is classed as functional.
A further assay concerns A549. The assay can be described thus: Antiproliferative activity against human A549 cells after 48 hrs by MTT assay. Type of assay: functional, cell-based. The settings on record: A549, 48 h.
Assay [4] concerns HCT-116. The assay can be described thus: Antiproliferative activity against human HCT116 cells after 48 hrs by MTT assay. The following applies: HCT-116, 48 h. Type of assay: functional, cell-based.
The next assay concerns ASPC1. The assay can be described thus: Antiproliferative activity against human AsPC1 cells after 48 hrs by MTT assay. Type of assay: functional, cell-based. The following applies: ASPC1, 48 h.
For assay [5], the system named is HCT-116. The assay can be described thus: Antiproliferative activity against human HCT116 cells by MTT assay. The assay is classed as functional, cell-based.
Another assay concerns SW-620. The assay can be described thus: Antiproliferative activity against human SW620 cells by MTT assay. The assay is classed as functional, cell-based.
In a further assay the test system is Huh-7. The assay can be described thus: Antiproliferative activity against human HuH7 cells by MTT assay. The assay is classed as functional, cell-based.
Assay [6] relates to HepG2. The assay can be described thus: Antiproliferative activity against human HepG2 cells by MTT assay. The assay is classed as functional, cell-based.
A further assay concerns Bacillus subtilis. The assay can be described thus: Antibacterial activity against Bacillus subtilis CMCC (B) 63501 after 6 hrs by two fold serial dilution method. Type of assay: functional. The settings on record: CMCC (B) 63501, 6 h.
Assay [7] relates to HepG2. The assay can be described thus: Antiproliferative activity against human HepG2 cells after 24 hrs by MTT assay. The assay is classed as functional, cell-based. The settings on record: HepG2, 24 h.
A further assay deals with MRC5. The assay can be described thus: Antiproliferative activity against human MRC5 cells after 24 hrs by MTT assay. The assay is classed as cell-based. The settings on record: MRC5, 24 h.
Assay [8] has as its system HL-60. The assay can be described thus: Antiproliferative activity against human HL60 cells after 24 hrs by MTT assay. Type of assay: functional, cell-based. The following applies: HL-60, 24 h.
Another assay concerns NCI-H460. The assay can be described thus: Antiproliferative activity against human H460 cells after 24 hrs by MTT assay. The assay is classed as functional, cell-based. The settings on record: NCI-H460, 24 h.
Assay [9] deals with Mycobacterium tuberculosis. The assay can be described thus: Antimycobacterial activity against Mycobacterium tuberculosis H37Rv after 10 to 12 days by double serial dilution method. Type of assay: functional.
The next assay relates to AZ-521 cell line. The assay can be described thus: Antiproliferative activity against human AZ-521 cells after 48 hrs by MTT assay. Type of assay: functional, cell-based. The following applies: AZ-521, 48 h.
The subject of a further assay is SK-BR-3. The assay can be described thus: Antiproliferative activity against human SKBR3 cells after 48 hrs by MTT assay. The assay is classed as functional, cell-based. The following applies: SK-BR-3, 48 h.
The test system of assay [10] is HL-60. The assay can be described thus: Antiproliferative activity against human HL60 cells after 48 hrs by MTT assay. Type of assay: functional, cell-based. The settings on record: HL-60, 48 h.
The subject of assay [11] is HepG2. The assay can be described thus: Antiproliferative activity against human HepG2 cells. Type of assay: functional, cell-based.
For another assay, the system named is HeLa. The assay can be described thus: Antiproliferative activity against human HeLa cells after 48 hrs by MTT assay. The assay is classed as functional, cell-based.
Assay [12] has as its system MCF7. The assay can be described thus: Antiproliferative activity against human MCF7 cells. Type of assay: functional, cell-based.
Assay [13] is described as follows: Inhibition of calf thymus DNA polymerase alpha using poly(dA)template/oligo(dT) (12 to 18 residues) primer and dTTP as substrate after 10 mins. Further details: species or system Bos taurus.
In assay [14] the test system is MCF7. The assay can be described thus: Antiproliferative activity against human MCF7 cells after 48 hrs by SRB assay. The assay is classed as functional, cell-based. The following applies: MCF7, 48 h.
In assay [15] the test system is Syrian golden hamster. The assay can be described thus: Induction of insulin sensitivity in Syrian golden hamster assessed as uplift of glucose uptake in normal condition relative to control. The assay is classed as functional, Mesocricetus auratus.
The subject of assay [16] is Syrian golden hamster. The assay can be described thus: Induction of insulin sensitivity in Syrian golden hamster assessed as uplift of glucose uptake in insulin-resistance condition relative to control. Type of assay: functional, Mesocricetus auratus.
Another assay deals with Jejunum. The assay can be described thus: Downregulation of glucose uptake in Syrian golden hamster jejunum at 1 mM after 60 mins relative to control. The assay is classed as functional, Mesocricetus auratus.

Converted amounts (≈) assume the structure as drawn.

Take `C[C@@]12CC[C@@H]3[C@@](CC[C@H]4[C@@]3(C)CCC[C@@]4(C)C(=O)OCC[N+](C)(C)Cc3ccccc3)(CC1=O)C2.[Br-]`: the MIC in the assay on Staphylococcus aureus and against Candida albicans was 31.2 µg/mL each time.
For `C=C1C(=O)[C@@]2(C)CC[C@@H]3[C@]1(CC[C@H]1[C@@]3(C)CCC[C@@]1(C)C(=O)NCC(=O)OCCCOc1no[n+]([O-])c1S(=O)(=O)c1ccccc1)C2`, in the assay on B16-F10, the IC50 came out at 0.02 µM.
Compound `CCOC(=O)[C@]1(C)CCC[C@@]2(C)[C@@H]3CC[C@@]4(C)C[C@]3(CC[C@@H]21)[C@H](Cn1cc(COc2ccccc2C=O)nn1)[C@H]4O` gave a 50% inhibitory concentration (IC50) in the assay on HCT-116 [1] of 2.98 µM.
The compound `COC(=O)[C@]1(C)CCC[C@@]2(C)[C@@H]3CC[C@@]4(C)C[C@]3(CC[C@@H]21)C/C4=N\NC(=O)c1ccccn1` showed an MIC in [2] of 10 µg/mL (≈ 22.1 µM).
The same measure, in the same setting: the result for `COC(=O)[C@]1(C)CCC[C@@]2(C)[C@@H]3CC[C@@]4(C)C[C@]3(CC[C@@H]21)C/C4=N\NC(=O)c1cccnc1` reads 10 µg/mL (≈ 22.1 µM).
Take `C[C@@]12CC[C@@H]3[C@@](CC[C@H]4[C@@]3(C)CCC[C@@]4(C)C(=O)O[C@@H]3O[C@H](C(=O)NN)[C@@H](O)[C@H](O)[C@H]3O)(C/C1=N\N)C2`: the minimum inhibitory concentration (MIC) was 0.7 µg/mL (≈ 1.34 µM) in [3], 0.35 µg/mL (≈ 0.67 µM) against Mycolicibacter terrae and 0.7 µg/mL (≈ 1.34 µM) against Mycobacterium avium.
Turning to `C[C@@]12CC[C@@H]3[C@@](CC[C@H]4[C@@]3(C)CCC[C@@]4(C)C(=O)OCc3cn(CCCc4ccccc4)nn3)(CC1=O)C2`, the IC50 in the assay on A549 was 9.95 µM; in the assay on HCT-116 [4] it was 6.6 µM; with ASPC1 it was 4.79 µM.
Turning to `CCOC(=O)[C@]1(C)CCC[C@@]2(C)[C@@H]3CC[C@@]4(C)C[C@]3(CC[C@@H]21)C/C4=N\OC(=O)CCC(=O)OCCOc1no[n+]([O-])c1S(=O)(=O)c1ccccc1`, the IC50 in the assay with HCT-116 [5] came out at 0.48 µM; with SW-620 it was 3.02 µM; in the assay on Huh-7 it was 2.86 µM; in the assay with HepG2 [6] it was 2.95 µM.
Take `CCOC(=O)[C@]1(C)CCC[C@@]2(C)[C@@H]3CC[C@@]4(C)C[C@]3(CC[C@@H]21)C/C4=N\OC(=O)CCC(=O)OC(C)CCOc1no[n+]([O-])c1S(=O)(=O)c1ccccc1` (stereo partly specified): the IC50 is 0.94 µM in the assay on HCT-116 [5], 1.15 µM with SW-620, 1.73 µM with Huh-7 and 2.42 µM with HepG2 [6].
`C=C[C@]12CC[C@H]3[C@@](C)(CCC[C@@]3(C)C(=O)OCC)[C@@H]1CC[C@](C)(/C=N/O)C2`: the MIC against Bacillus subtilis stood at 1.56 µg/mL (≈ 4.15 µM).
For `C=C1C[C@@]23CC[C@H]4[C@@](C)(CCC[C@@]4(C)C(=O)NCCNC(=O)[C@]4(C)CCC[C@@]5(C)[C@@H]6CC[C@]7(O)C[C@@]6(CC[C@@H]54)CC7=C)[C@@H]2CC[C@]1(O)C3`, the half-inhibitory concentration (IC50) worked out at 17.9 µM in the assay on HepG2 [7], 17 µM with MRC5, 4.3 µM in the assay on HL-60 [8] and 10.7 µM with NCI-H460.
As for `C[C@@]12CC[C@@H]3[C@@](CC[C@H]4[C@@]3(C)CCC[C@@]4(C)C(=O)O)(C[C@H]1CC(=O)CCCCCCCCC(=O)C[C@@H]1C[C@]34CC[C@H]5[C@@H](CCC[C@H]5C(=O)O)[C@@H]3CC[C@@]1(C)C4)C2`, in assay [9], the minimal inhibitory concentration (MIC) was 12.5 µg/mL (≈ 16.1 µM).
With `COP(=O)(OC)C(C)(C)C/C(C)=N/N=C1\C[C@]23CC[C@H]4[C@@](C)(CCC[C@@]4(C)C(=O)N/N=C(\C)CC(C)(C)P(=O)(OC)OC)[C@@H]2CC[C@@]1(C)C3`, the lowest concentration to inhibit growth in assay [2] (MIC) was 5 µg/mL (≈ 6.88 µM).
`C=C1C[C@@]23CC[C@H]4[C@@H](CCC[C@@]4(C)COC(=O)/C=C/C(F)(F)F)[C@@H]2CC[C@]1(O)C3`: the 50% inhibitory concentration (IC50) with AZ-521 cell line was 1.7 µM; in the assay with A549 it was 4.1 µM; in the assay with SK-BR-3, 1.2 µM; in the assay with HL-60 [10], 2.9 µM.
Take `CCCCCCCC(=O)CO[C@]1(C)CCC[C@@]2(C)[C@@H]3CC[C@@]4(C)C[C@]3(CC[C@@H]21)CC4=O`: the IC50 with HepG2 [11] amounted to 2 µM.
With `C[C@@]12CC[C@@H]3[C@@](CC[C@H]4[C@@]3(C)CCC[C@@]4(C)C(=O)NNC(=O)CCCCC(=O)NNC(=O)[C@]3(C)CCC[C@H]4[C@@H]5CC[C@@]6(C)C[C@]5(CC[C@@H]43)CC6=O)(CC1=O)C2`, 5 µg/mL (≈ 6.57 µM) was the least that counted as inhibitory in assay [2] (MIC).
In turn, `C[C@@]12CC[C@@H]3[C@@](CC[C@H]4[C@@]3(C)CCC[C@@]4(C)C(=O)OCc3cn(-c4ccccc4)nn3)(CC1=O)C2` came in with an IC50 in the assay with HeLa of 5.83 µM.
As for `C[C@@]12CC[C@@H]3[C@@](CC[C@H]4[C@@]3(C)CCC[C@@]4(C)C(=O)NCCNC(=O)[C@]3(C)CCC[C@@]4(C)[C@@H]5CC[C@@]6(C)C[C@]5(CC[C@@H]43)CC6=O)(CC1=O)C2`, the IC50 with HepG2 [7] was found to be 17.4 µM; in the assay with MRC5, 22.6 µM; in the assay on HL-60 [8], 4.8 µM; with NCI-H460, 14 µM.
In assay [2], `NNC(=O)c1ccncc1` [ISONIAZID] had an MIC of 0.5 µg/mL (≈ 3.65 µM).
As for `C[C@@]12CC[C@@H]3[C@@](CC[C@H]4[C@@]3(C)CCC[C@@]4(C)C(=O)O)(CC1=O)C2` [ISOSTEVIOL], the values for the concentration for half-maximal inhibition (IC50) (in the assay with MCF7 [12]; in [13]) were 2.18 µg/mL (≈ 6.85 µM) and 64 µM, respectively.
Compound `C=C1C[C@@]23CC[C@H]4[C@@](C)(CCC[C@@]4(C)C(=O)O)[C@@H]2CC[C@]1(O)C3` [STEVIOL] had an IC50 in the assay with MCF7 [14] of 185 µM.
For `C=C1C[C@@]23CC[C@H]4[C@@](C)(CCC[C@@]4(C)C(=O)O[C@@H]4O[C@H](CO)[C@@H](O)[C@H](O)[C@H]4O)[C@@H]2CC[C@]1(O[C@@H]1O[C@H](CO)[C@@H](O)[C@H](O)[C@H]1O[C@@H]1O[C@H](CO)[C@@H](O)[C@H](O)[C@H]1O)C3` [STEVIOSIDE], the entries for the “fold change (FC)” value in the assay on Syrian golden hamster [15] and with Syrian golden hamster [16] were 2.1 and 4.4, respectively. The Activity in the assay with Jejunum came out at 43%.
Compound `CCN(CC)CCNC(=O)c1c(C)[nH]c(/C=C2\C(=O)Nc3ccc(F)cc32)c1C` [SUNITINIB] returned an IC50 in the assay with HepG2 [6] of 7.78 µM.

The values above are taken from ChEMBL document CHEMBL4270582, “Diterpenoid lead stevioside and its hydrolysis products steviol and isosteviol: Biological activity and structural modification” (Eur J Med Chem, 2018).
